Source: paper PMC9501014, “Amaryllidaceae-Type Alkaloids from Pancratium maritimum: Apoptosis-Inducing Effect and Cell Cycle Arrest on Triple-Negative Breast Cancer Cells” (Molecules, 2022)
Where two headings read alike, the source gives them in different places.

Experiments:
[1] = system: MDA-MB-231 cells; assay: Annexin V-FITC apoptosis assay; type: cell-based, human; details: 16 µM, 48 h, vs vehicle control
Procedure: Figure 2 Compound 7 induced cell cycle arrest, apoptosis, and ROS production, in MDA-MB-231 cells. […] (B) Effect of 16 µM of compound 7 on cell cycle progression after 48 h of treatment in MDA-MB-231 cells; the percentage of cells in each phase of the cell cycle was analyzed by flow cytometry, using PI; data are mean ± SEM of three independent experiments. […] (C) Effect of 16 µM of compound 7 on apoptosis after 48 h of treatment; the percentage of Annexin-positive cells was analyzed by flow cytometry using PI and Annexin-V staining; data are mean ± SEM of three independent experiments. […] (D) Effect of 16 µM of compound 7 on mitochondrial ROS generation after 24 h of treatment; data are mean ± SEM of three independent experiments (* p < 0.05, unpaired Student’s t-test). […] (F) The graph represents the quantification of protein expression levels relative to DMSO; data are mean ± SD of three independent experiments. The ability of compound 7 to induce apoptosis in this cell line was also assessed by cytometry, using the Annexin V-FITC assay after 48 h of treatment. […]
The analyses were performed basically as described in [33]. […] The cells were then analyzed by flow cytometry, and cell cycle phases were identified and quantified using the FlowJo × 10.0.7 Software (Treestar, Ashland, OR, USA). […]

[2] = system: MDA-MB-231 cells; assay: Sulforhodamine B antiproliferative assay, MDA-MB-231; type: cell-based, human; details: for IC50: sulforhodamine B assay, 48 h of treatment, read-out: IC50 MDA-MDB-231 (A)
Procedure: (§1) The antiproliferative effect of the isolated compounds (1–11) was investigated by the sulforhodamine B assay against human triple-negative breast cancer cell lines (MDA-MB-468 and MDA-MB-231) and breast ductal carcinoma cells (MCF-7) and the non-tumorigenic fibroblast (HFF-1) and breast cell lines (MCF12A). The IC50 values were determined after 48 h of treatment (Table 1).
(§2) Human breast adenocarcinoma MDA-MB-231, MDA-MB-468, and MCF-7 cell lines and non-tumorigenic foreskin fibroblast (HFF-1) and breast (MCF12A) cell lines were purchased from American Type Culture Collection (ATCC, Rockville, MD, USA). All cancer cell lines, except MCF12A, were routinely cultured in RPMI-1640 medium with glutamine from Corning (VWR, Carnaxide, Portugal) supplemented with 10% fetal bovine serum (FBS) from Biowest (Labclinics, Barcelona, Spain). MCF12A cells were cultured in a 1:1 mixture of Dulbecco’s modified Eagle’s medium and Ham’s F12 medium, 20 ng/mL human epidermal growth factor, 100 ng/mL cholera toxin, 0.01 mg/mL bovine insulin, and 500 ng/mL hydrocortisone and supplemented with 10% FBS. All cells were maintained in a humidified incubator at 37 °C with 5% CO2. All cells were routinely tested for mycoplasma contamination using the MycoAlertTM PLUS detection kit (Lonza, Basel, Switzerland).
(§3) Human cell lines were seeded in 96-well plates at a density of 5.0 × 10^3 (MDA-MB-231, MCF-7, HFF-1, and MCF12A) and 7.5 × 10^3 (MDA-MB-468) cells/well and allowed to adhere for 24 h. Cells were treated with serial dilutions of compounds (ranging from 0.1 to 40 μM) for an additional 48 h. Effect on cell proliferation was measured by sulforhodamine B assay, as described in [33], and the half-maximal inhibitory concentration (IC50) was then determined for each cell line using the GraphPad Prism software version 7.0 (La Jolla, CA, USA).

[3] = system: MDA-MB-231 cells; assay: Mitochondrial ROS generation (MitoSOX); type: cell-based, human; details: 16 µM, 24 h
Procedure: Figure 2 Compound 7 induced cell cycle arrest, apoptosis, and ROS production, in MDA-MB-231 cells. […] (B) Effect of 16 µM of compound 7 on cell cycle progression after 48 h of treatment in MDA-MB-231 cells; the percentage of cells in each phase of the cell cycle was analyzed by flow cytometry, using PI; data are mean ± SEM of three independent experiments. […] (C) Effect of 16 µM of compound 7 on apoptosis after 48 h of treatment; the percentage of Annexin-positive cells was analyzed by flow cytometry using PI and Annexin-V staining; data are mean ± SEM of three independent experiments. […] (F) The graph represents the quantification of protein expression levels relative to DMSO; data are mean ± SD of three independent experiments. The ability of compound 7 to induce apoptosis in this cell line was also assessed by cytometry, using the Annexin V-FITC assay after 48 h of treatment. […]
For mitochondrial ROS generation assessment, MDA-MB-231 cells were seeded in 6-well plates at a density of 1.5 × 10^5 cells/well for 24 h, followed by treatment with 16 µM of compound 7 for an additional 24 h. Thereafter, cells were incubated with 3 μM MitoSOX (Thermo Fisher Scientific, Invitrogen, Portugal) for 30 min at 37 °C and analyzed by flow cytometry.

[4] = system: breast cancer cell lines (MDA-MB-231, MDA-MB-468, MCF-7); assay: Sulforhodamine B assay, all breast cancer cell lines; type: cell-based; details: Homo sapiens; range over the four alkaloids and MDA-MB-231, MDA-MB-468, MCF-7; read-out: IC50 values against all breast cancer cell lines
Procedure: Aiming to find Amaryllidaceae alkaloids against breast cancer, including the highly aggressive triple-negative breast cancer, the phytochemical study of Pancratium maritimum was carried out. Several Amaryllidaceae-type alkaloids, bearing scaffolds of the haemanthamine-, homolycorine-, lycorine-, galanthamine-, and tazettine-type were isolated (3–11), along with one alkamide (2) and a phenolic compound (1). The antiproliferative effect of compounds (1–11) was evaluated by the sulforhodamine B assay against triple-negative breast cancer cell lines MDA-MB-231 and MDA-MB-468, breast cancer cells MCF-7, and the non-malignant fibroblast (HFF-1) and breast (MCF12A) cell lines. […] The homolycorine-type alkaloid 7 was selected for further investigation in MDA-MB-231 cells. In the annexin-V assay, compound 7 increased cell death by apoptosis, which was substantiated, in western blot analyses, by the increased expression of the pro-apoptotic protein Bax, and the decreased expression of the anti-apoptotic protein Bcl-xL. Consistently, it further stimulated mitochondrial reactive oxygen species (ROS) generation. The antiproliferative effect of compound 7 was also associated with G2/M cell cycle arrest, which was supported by an increase in the p21 protein expression levels.
as §3

[5] = system: MDA-MB-468 cells; assay: Sulforhodamine B antiproliferative assay, MDA-MB-468; type: cell-based, human
Procedure: as §1, §2, §3

[6] = system: MCF-7 cells; assay: Sulforhodamine B antiproliferative assay, MCF-7; type: cell-based, human
Procedure: as §1, §2, §3

SMILES: COc1cc2c(cc1O)C(=O)OC1[C@@H](O)C=C3CCN(C)C3[C@]21O (stereo partly drawn) [Compound 7, 2α-10bα-dihydroxy-9-O-demethylhomolycorine]
- percentage of apoptotic (Annexin-positive) cells [1]: significant increase in the percentage of apoptotic cells
- effect of compound alone on cancer cell growth ([2]; 1.5 µM): no significant effect on cancer cell growth
- IC50 ([2]; Homo sapiens, MDA-MB-231, 48 h): 8.02 µM
- SI E/A ([2]; selectivity index, HFF-1 vs MDA-MB-231): 1.65
- SI D/A ([2]; selectivity index, MCF12A vs MDA-MB-231): 0.69
- IC50 [2]: 8 ± 1.68 µM
- mitochondrial ROS production [3]: increased ROS production
- IC50 [4]: 0.73 to 16.3 µM
- IC50 ([5]; Homo sapiens, MDA-MB-468, 48 h, sulforhodamine B assay, 48 h of treatment): 16.3 ± 1.3 µM
- SI E/B ([5]; selectivity index, HFF-1 vs MDA-MB-468): 0.81
- SI D/B ([5]; selectivity index, MCF12A vs MDA-MB-468): 0.34
- IC50 ([6]; Homo sapiens, MCF7, 48 h, sulforhodamine B assay, 48 h of treatment, read-out: IC50 MCF-7 (C)): 6.8 ± 0.2 µM
- SI D/C ([6]; selectivity index, MCF12A vs MCF-7): 0.82
